Experimental data from patent US6169181A, “Compounds useful to treat retroviral infections” (Pharmacia & Upjohn Company, priority 1998, dated 2001).
Where “and” joins values, the source holds several entries; their conditions need not be identical. Equal values may be shown once. Read-outs that look alike come from different tables or passages of the source.

Assays:
HIV-1 protease [1] = target: T1, HIV-1 protease (Human immunodeficiency virus type 1 group M subtype B, UniProt P04585); assay: biochemical; conditions: Table I; for inhibition at 0.123 µM / inhibition at 0.37 µM / inhibition at 1.1 µM / inhibition at 3.3 µM / inhibition at 10 µM / inhibition at 30 µM: read-out: Protease % Inhib
Description: (§1) The HIV protease screening assay is based on fluorescently labeled substrate which can be resolved from nonlabeled cleavage product using special beads coated with streptavidin. The substrate is biotinylated at the amino terminal arginine and fluorescently labeled with fluorescein isothiocynate (FITC) at the carboxyl terminal lysine. This assay has been employed to detect novel, nonpeptidic inhibitors of HIV-1 protease. Substrate (20 μM of 0.2 μM), sample (10 μl of desired concentraion), and enzyme (10 μl of 0.1 μM) are added to a 96 well pandex plate. The assay is run in 0.1 M sodium acetate buffer at pH 5.5 in the presence of 1.0 M sodium chloride and 0.05% NP-40 with incubated in the dark for one hour at room temperature. Strepavidin coated polystyrene beads {40 μl of 0.1% (w/v)} are added and the plate is incubated in the dark for an additional half hour. The labeled cleavage product is separated from the unreacted substrate via filtration and is read on the Idexx screen machine. The data are analyzed by appropriate computer algorithms to ascertain percent inhibition values.

HIV-1 protease [2] = target: T1, HIV-1 protease; assay: biochemical
Description: as §1, with “This assay has been employed to detect novel, nonpeptidic inhibitors of HIV-1 protease.” left out
Determination of Ki values utilizes the same materials and equipment employed for percent inhibition studies. Two-fold serial dilutions are made for a given inhibitor from 2, 3 or 4 starting concentrations with a total of 24, 36 or 48 individual inhibitor concentrations. These dilutions are performed utilizing the BioMek robotics system. The assay consists of 10 μL of 40 nM HIV-1 protease, 10 μL of the various inhibitor concentrations, and 20 μL of 200 μM substrate (40 μL total). The reaction is allowed to proceed for 90 min at room temperature, terminated with 40 μL of avidin beads and processed (supra vide). An inhibitor with a known K; is run in parallel to verify the validity of the assay. The data is processed utilizing a computer program employing a nonlinear least square analysis of the data to generate the Ki values.

[3] = Table I, read-out: HIV Protease FITC Assay Ki
[4] = read-out: HIV Protease FITC Assay Ki

“4-Pyridylsulfonamide, N-[4-[cyclopropyl(5,6,7,8,9,10-hexahydro-4-hydroxy-2-oxo-2H-cycloocta[b]pyran-3-yl)methyl]phenyl]- [Example 240]” was tested, and the “PROTEASE % INHIB.” value (HIV-1 protease [1]; Dose 0.123 μM) was 96.32%, the “PROTEASE % INHIB.” value (HIV-1 protease [1]; Dose 0.370 μM) was 100.98% and the “PROTEASE % INHIB.” value (HIV-1 protease [1]; Dose 1.100 μM) was 102.71%. For the same molecule, the “PROTEASE % INHIB.” value (HIV-1 protease [1]; Dose 3.300 μM) was 101.88%, the “PROTEASE % INHIB.” value (HIV-1 protease [1]; Dose 10.900 μM) was 104.28% and the “PROTEASE % INHIB.” value (HIV-1 protease [1]; Dose 30.000 μM) was 107.17%. It also gave a Ki (HIV-1 protease [2]; [3]) of 1.3 nM.

`CC(C)CC(c1cccc(NS(=O)(=O)c2cn(C)cn2)c1)c1c(O)c2c(oc1=O)CCCCCC2` (single isomer, unassigned) [Example 8, (R or S)-N-[3-1-(5,6,7,8,9,10-Hexahydro-4-hydroxy-2-oxo-2H-cycloocta[b]pyran-3-yl)-3-methylbutyl]phenyl]-1-methyl-1H-imidazole-4-sulfonamide] gave an inhibition at 0.123 µM (HIV-1 protease [1]; Dose 0.123 μM) of 99.2%, an inhibition at 0.37 µM (HIV-1 protease [1]; Dose 0.370 μM) of 110% and an inhibition at 1.1 µM (HIV-1 protease [1]; Dose 1.100 μM) of 103%. It also gave an inhibition at 3.3 µM (HIV-1 protease [1]; Dose 3.300 μM) of 110%, an inhibition at 10 µM (HIV-1 protease [1]) of 105% and an inhibition at 30 µM (HIV-1 protease [1]; Dose 30.000 μM) of 102%. For the same molecule, the Ki (HIV-1 protease [2]; [3]) was 0.35 nM.

`CC(C)CC(c1cccc(NS(=O)(=O)c2cn(C)cn2)c1)c1c(O)c2c(oc1=O)CCCCCC2` (single isomer, unassigned) [Example 9, (R or S)-N-[3-1-(5,6,7,8,9,10-Hexahydro-4-hydroxy-2-oxo-2H-cycloocta[b]pyran-3-yl)-3-methylbutyl]phenyl]-1-methyl-1H-imidazole-4-sulfonamide] was tested, and the inhibition at 0.123 µM (HIV-1 protease [1]; Dose 0.123 μM) was 99.1%, the inhibition at 0.37 µM (HIV-1 protease [1]; Dose 0.370 μM) was 104% and the inhibition at 1.1 µM (HIV-1 protease [1]; Dose 1.100 μM) was 105%. For the same molecule, the inhibition at 3.3 µM (HIV-1 protease [1]; Dose 3.300 μM) was 105%, the inhibition at 10 µM (HIV-1 protease [1]) was 107% and the inhibition at 30 µM (HIV-1 protease [1]; Dose 30.000 μM) was 108%. It also gave a Ki (HIV-1 protease [2]; [3]) of 0.42 nM.

With `CCCC1(CCC)CC(O)=C(C(CC)c2cccc(NS(=O)(=O)c3cccc4cccnc34)c2)C(=O)O1` (single isomer, unassigned) [Example 52, (R or S)-N-[3-[1-(4-Hydroxy-2-oxo-6,6-dipropyl-5,6-dihydro-2H-pyran-3-yl)-propyl]-phenyl]-8-quinolinesulfonamide] the “PROTEASE % INHIB.” value (HIV-1 protease [1]; Dose 0.123 μM) was 85.08%, the inhibition at 0.37 µM (HIV-1 protease [1]; Dose 0.370 μM) was 87.3% and the inhibition at 1.1 µM (HIV-1 protease [1]; Dose 1.100 μM) was 92.6%. For the same molecule, the inhibition at 3.3 µM (HIV-1 protease [1]; Dose 3.300 μM) was 97.4%, the inhibition at 10 µM (HIV-1 protease [1]) was 97.2% and the inhibition at 30 µM (HIV-1 protease [1]; Dose 30.000 μM) was 88.9%. It also gave a Ki (HIV-1 protease [2]; [3]) of 1.4 nM.

For `CCCC1(CCC)CC(O)=C(C(CC)c2cccc(NS(=O)(=O)c3cn(C)cn3)c2)C(=O)O1` (single isomer, unassigned) [Example 53, (R or S)-N-[3-[1-(4-hydroxy-2-oxo-6,6-dipropyl-5,6-dihydro-2H-pyran-3-yl)-propyl]-phenyl]-1-methyl-1H-imidazole-4-sulfonamide], the “PROTEASE % INHIB.” value (HIV-1 protease [1]; Dose 0.123 μM) was 88.61%, the “PROTEASE % INHIB.” value (HIV-1 protease [1]; Dose 0.370 μM) was 97.74% and the “PROTEASE % INHIB.” value (HIV-1 protease [1]; Dose 1.100 μM) was 97.95%. The inhibition at 3.3 µM (HIV-1 protease [1]; Dose 3.300 μM) was 99.6%, the inhibition at 10 µM (HIV-1 protease [1]) was 90.2% and the inhibition at 30 µM (HIV-1 protease [1]; Dose 30.000 μM) was 84.4%. For the same molecule, the Ki (HIV-1 protease [2]; [3]) was 0.9 nM.

In the case of `Cn1cnc(S(=O)(=O)Nc2cccc(C(c3c(O)cc(C(CC4CC4)CC4CC4)oc3=O)C3CC3)c2)c1` (stereo not shown) [98 Second Compound], the Ki (HIV-1 protease [2]; [4]) is reported as 0.84 nM and 0.8 nM.

`CCC(C1=C(O)CC(CCC2CC2)(CCC2CC2)OC1=O)c1cccc(NS(=O)(=O)c2cn(C)cn2)c1` (stereo not shown) [Example 246, N-[3-(1-[6,6-Bis-(2-cyclopropyl-ethyl)-5,6-dihydro-4-hydroxy-2-oxo-2H-pyran-3-yl]propyl)phenyl]-1-methyl-1H-imidazole-4-sulfonamide] showed a Ki (HIV-1 protease [2]; [3]) of 1.7 nM.

Work on `CCC(C1=C(O)CC(CCC2CC2)(CCC2CC2)OC1=O)c1cccc(NS(=O)(=O)c2ccc(C#N)cn2)c1` (stereo not shown) [Example 247, N-[3-(1-[6,6-Bis-(2-cyclopropyl-ethyl)-5,6-dihydro-4-hydroxy-2-oxo-2H-pyran-3-yl]propyl)phenyl]-5-cyano-2-pyridinesulfonamide] yielded a Ki (HIV-1 protease [2]; [3]) of 1.2 nM.

`CCC(C1=C(O)CC(CC)(c2cccc(NS(=O)(=O)c3cn(C)cn3)c2)OC1=O)c1cccc(NS(=O)(=O)c2cn(C)cn2)c1` (stereo not shown) [Example 248, N-(3-[1-(6-Ethyl-5,6-dihydro-4-hydroxy-6-[3-([(1-methyl-1H-imidazol-4-yl)sulfonyl]amino)phenyl]-2-2H-pyran-3-yl)propyl]phenyl)-1-methyl-1H-imidazole-4-sulfonamide] was tested, and the Ki (HIV-1 protease [2]; [3]) was 4.7 nM.

`CCC(C1=C(O)CC(CC)(c2cccc(NS(=O)(=O)c3ccc(C#N)cn3)c2)OC1=O)c1cccc(NS(=O)(=O)c2ccc(C#N)cn2)c1` (stereo not shown) [Example 249, 5-Cyano-N-(3-[1-(6-[3-([(5-cyano-2-pyridinyl)sulfonyl]amino)phenyl]-6-ethyl-5,6-dihydro-4-hydroxy-2-oxo-2H-pyran-3-yl)propyl]phenyl)-2-pyridinesulfonamide] was tested, and the Ki (HIV-1 protease [2]; [4]) was 0.75 nM.

Molecule `CCCC1(CCc2ccc(F)cc2)CC(O)=C(C(CC)c2cccc(NS(=O)(=O)c3cn(C)cn3)c2)C(=O)O1` (stereo not shown) [Example 254, N-[3-{1-(4-Hydroxy-5,6-dihydro-2-oxo-6-(2-(4-fluorophenyl)ethyl)-6-propyl-2H-pyran-3-yl)propyl}phenyl]-1-methyl-1H-imidazole-4-sulfonamide] has a Ki (HIV-1 protease [2]; [4]) of 3 nM.

`CCCC1(CCc2ccc(F)cc2)CC(O)=C(C(CC)c2cccc(NS(=O)(=O)c3ccc(C#N)cn3)c2)C(=O)O1` (stereo not shown) [Example 255, N-[3-{1-(4-Hydroxy-5,6-dihydro-2-oxo-6-(2-(4-fluorophenyl)ethyl)-6-propyl-2H-pyran-3-yl)propyl}phenyl]-5-cyanopyridine-2-sulfonamide] showed a Ki (HIV-1 protease [2]; [3]) of 1.6 nM.

Work on `Cn1cnc(S(=O)(=O)Nc2cccc(C(C3=C(O)CC(CCc4ccc(F)cc4)(CCc4ccc(F)cc4)OC3=O)C(C)(C)C)c2)c1` (stereo not shown) [Example 256, N-[3-{1-(4-Hydroxy-5,6-dihydro-2-oxo-6,6-bis(2-(4-fluorophenyl)ethyl)-2H-pyran-3-yl)-2,2-dimethylpropyl}phenyl]-1-methyl-1H-imidazole-4-sulfonamide] yielded a Ki (HIV-1 protease [2]; [3]) of 8.3 nM.

`CC(C)(C)C(C1=C(O)CC(CCc2ccc(F)cc2)(CCc2ccc(F)cc2)OC1=O)c1cccc(NS(=O)(=O)c2ccc(C#N)cn2)c1` (stereo not shown) [Example 257, N-[3-{1-(4-Hydroxy-5,6-dihydro-2-oxo-6,6-bis(2-(4-fluorophenyl)ethyl)-2H-pyran-3-yl)-2,2-dimethylpropyl}phenyl]-5-cyanopyridine-2-sulfonamide] showed a Ki (HIV-1 protease [2]; [3]) of 9 nM.

Work on `CCC(C1=C(O)CC(CCc2ccc(F)cc2)(CCc2ccc(F)cc2)OC1=O)c1cccc(NS(=O)(=O)c2cn(C)cn2)c1` (stereo not shown) [Example 258, N-[3-{1-(4-Hydroxy-5,6-dihydro-2-oxo-6,6-bis(2-(4-fluorophenyl)ethyl)-2H-pyran-3-yl)propyl}phenyl]-1-methyl-1H-imidazole-4-sulfonamide] yielded a Ki (HIV-1 protease [2]; [3]) of 4.3 nM.

For `CCC(C1=C(O)CC(CCc2ccc(F)cc2)(CCc2ccc(F)cc2)OC1=O)c1cccc(NS(=O)(=O)c2ccc(C#N)cn2)c1` (stereo not shown) [Example 259, N-[3-{1-(4-Hydroxy-5,6-dihydro-2-oxo-6,6-bis(2-(4-fluorophenyl)ethyl)-2H-pyran-3-yl)propyl}phenyl]-5-cyanopyridine-2-sulfonamide], the Ki (HIV-1 protease [2]; [3]) was 2.2 nM.

In the case of `CCCC1(CCC)CC(O)=C(C(c2cccc(NS(=O)(=O)c3ccc(C#N)cn3)c2)C(C)(C)C)C(=O)O1` (stereo not shown) [Example 260, N-[3-{1-(4-Hydroxy-5,6-dihydro-2-oxo-6,6-dipropyl-2H-pyran-3-yl)-2,2-dimethylpropyl}phenyl]-5-cyanopyridine-2-sulfonamide], the Ki (HIV-1 protease [2]; [3]) is reported as 2 nM.

Molecule `CCCC1(CCC)CC(O)=C(C(c2cccc(NS(=O)(=O)c3cn(C)cn3)c2)C(C)(C)C)C(=O)O1` (stereo not shown) [Example 261, N-[3-{1-(4-Hydroxy-5,6-dihydro-2-oxo-6,6-dipropyl-2H-pyran-3-yl)-2,2-dimethylpropyl}phenyl]-1-methyl-1H-imidazole-4-sulfonamide] has a Ki (HIV-1 protease [2]; [3]) of 0.87 nM.

For `CCC(C1=C(O)C2CCCCC2OC1=O)c1cccc(NS(=O)(=O)c2ccc(C#N)cc2)c1` (stereo not shown) [Example 371], the Ki (HIV-1 protease [2]; read-out: FITC KI) was 15.4 nM.
